Experimental data: ChEMBL document CHEMBL4145523, “New selective cyclooxygenase-2 inhibitors from cyclocoumarol: Synthesis, characterization, biological evaluation and molecular modeling” (Eur J Med Chem, 2018)
The source made the active and inactive calls. The calls are words filed in the database; no cut-off is given here.

Legend:
[1] = target: T1, Prostaglandin G/H synthase 1 (Mus musculus, UniProt P22437); assay: Inhibition of COX-1 in mouse RAW264.7 cells assessed as reduction in PGE2 production at 10 uM after 24 hrs by enzyme immunoassay; type: cell-based; conditions: raw264.7, 24 h
T1 sequence (P22437 whole entry): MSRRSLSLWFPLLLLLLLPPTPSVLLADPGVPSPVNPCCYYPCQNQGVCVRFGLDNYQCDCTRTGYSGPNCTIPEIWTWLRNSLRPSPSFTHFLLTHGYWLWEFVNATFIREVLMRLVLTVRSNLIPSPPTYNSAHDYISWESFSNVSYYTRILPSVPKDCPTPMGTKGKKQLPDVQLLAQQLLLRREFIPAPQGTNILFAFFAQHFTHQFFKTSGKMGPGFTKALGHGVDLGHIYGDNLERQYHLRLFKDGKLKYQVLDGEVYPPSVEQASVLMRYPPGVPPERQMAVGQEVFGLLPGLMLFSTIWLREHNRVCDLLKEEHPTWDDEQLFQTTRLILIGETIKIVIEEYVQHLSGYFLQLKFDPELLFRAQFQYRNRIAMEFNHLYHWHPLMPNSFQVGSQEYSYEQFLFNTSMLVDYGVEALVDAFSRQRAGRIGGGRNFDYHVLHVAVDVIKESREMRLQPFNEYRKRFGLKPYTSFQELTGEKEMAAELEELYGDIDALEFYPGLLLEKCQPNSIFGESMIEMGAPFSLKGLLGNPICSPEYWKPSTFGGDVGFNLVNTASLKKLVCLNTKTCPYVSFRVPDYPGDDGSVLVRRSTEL

[2] = target: T2, Prostaglandin G/H synthase 2 (Mus musculus) (UniProt Q05769); assay: Inhibition of COX-2 in mouse RAW264.7 cells assessed as reduction in PGE2 production preincubated for 2 hrs followed by LPS stimulation measured after 24 hrs by enzyme immunoassay; type: cell-based
T2 sequence (whole entry): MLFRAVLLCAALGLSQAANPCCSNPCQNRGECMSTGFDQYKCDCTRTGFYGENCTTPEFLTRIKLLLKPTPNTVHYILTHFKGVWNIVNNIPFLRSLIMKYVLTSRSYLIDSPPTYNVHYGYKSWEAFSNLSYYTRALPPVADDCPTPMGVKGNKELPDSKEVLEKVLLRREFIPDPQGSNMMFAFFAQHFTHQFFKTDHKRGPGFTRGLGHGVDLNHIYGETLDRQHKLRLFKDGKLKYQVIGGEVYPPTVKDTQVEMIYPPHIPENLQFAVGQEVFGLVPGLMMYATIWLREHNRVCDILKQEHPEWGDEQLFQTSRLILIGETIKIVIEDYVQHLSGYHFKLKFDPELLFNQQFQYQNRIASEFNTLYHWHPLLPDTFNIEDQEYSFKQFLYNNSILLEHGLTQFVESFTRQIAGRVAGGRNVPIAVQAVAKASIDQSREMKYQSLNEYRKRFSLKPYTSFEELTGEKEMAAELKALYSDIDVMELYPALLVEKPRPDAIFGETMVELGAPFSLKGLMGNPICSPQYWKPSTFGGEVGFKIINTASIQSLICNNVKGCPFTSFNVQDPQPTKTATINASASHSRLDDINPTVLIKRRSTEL

RAW264.7 [3] = assay: Antiinflammatory activity against mouse RAW264.7 cells assessed as inhibition of LPS induced cox-2 expression at 5 to 20 uM preincubated for 2 hrs followed by LPS challenge measured after 24 hrs by Western blot method; type: functional, cell-based
RAW264.7 [4] = assay: Down regulation of COX-1 expression in mouse RAW264.7 cells at 10 uM after 24 hrs by Western blot method; type: ADME, cell-based; conditions: raw264.7, 24 h

Structure (SMILES): COc1ccc(C2CC(C)(OC)Oc3c2c(=O)oc2ccccc32)cc1 (single isomer, unassigned)
- inhibition (INH) [1]: Not Active
- inhibition [2]: Dose-dependent effect
- inhibition (RAW264.7 [3]): inactive
- Activity (RAW264.7 [4]): Non-Toxic
